Entries after “also recorded” stand apart in the source; their conditions may differ.
Experiments:
[1] = biological target: T1, Aβ1-42 (Homo sapiens, UniProt P05067); assay: Electron microscopy of fibril formation from Aβ1-42 in the presence of ligands; type: biochemical; conditions: Aβ1-42 5 μM with 5 or 25 μM ligand, 37° C., 9 hours
T1 construct: Samples of Aβ1-42 peptide (5 μM) alone or mixed with 5 or 25 μM of each ligand
Method: Samples of Aβ1-42 peptide (5 μM) alone or mixed with 5 or 25 μM of each ligand in a volume of 100 μl, were incubated at 37° C. for 9 hours. Aliquotes of 2 μl were taken from the different samples, adsorbed on copper grids and negatively stained with 2.5% uranyl acetate in 50% ethanol. The samples were examined and photographed using a Hitachi H7100 microscope operated at 75 kV.

[2] = system: kainate-induced gamma oscillations; assay: Control: ligands alone on kainate-induced gamma oscillations in hippocampal slices (absence of Aβ); type: cell-based, C57BL/6 mice
Method: (§1) Experiments were carried out in accordance with ethical permit granted by Norra Stockholms Djurförsöksetiska Nämnd to AF (N45/13). C57BL/6 mice of either sex (postnatal days 14-23, supplied from Charles River, Germany) were used in all experiments. The animals were deeply anaesthetized using isofluorane before being sacrificed by decapitation.
(§2) The brain was dissected out and placed in ice-cold ACSF (artificial cerebrospinal fluid) modified for dissection. This solution contained (in mM); 80 NaCl, 24 NaHCO3, 25 Glucose, 1.25 NaH2PO4, 1 Ascorbic acid, 3 NaPyruvate, 2.5 KCl, 4 MgCl2, 0.5 CaCl2, 75 Sucrose. Horizontal sections (350 μm thick) of the ventral hippocampi of both hemispheres were prepared with a Leica VT1200S vibratome (Microsystems, Stockholm, Sweden). Immediately after slicing sections were transferred to a submerged incubation chamber containing standard ACSF (in mM): 124 NaCl, 30 NaHCO3, 10 Glucose, 1.25 NaH2PO4, 3.5 KCl, 1.5 MgCl2, 1.5 CaCl2. The chamber was held at 34° C. for at least 20 minutes after dissection. It was subsequently allowed to cool to ambient room temperature (19-22° C.) for a minimum of 40 minutes. Peptides were added to the incubation solution 15 minutes before transferring slices to the interface-style recording chamber. While incubating slices were continuously supplied with carbogen gas (5% CO2, 95% O2) bubbled into the ACSF. Chemical compounds used in intracellular and extracellular solutions were obtained from Sigma-Aldrich Sweden AB (Stockholm, Sweden). The Kainic acid was obtained from Tocris.
(§3) Recordings were carried out in hippocampal area CA3 with borosilicate glass microelectrodes, pulled to a resistance of 3-7 MO. Local field potentials (LFP) were recorded at 34° C. using microelectrodes filled with ACSF placed in stratum pyramidale. LFP oscillations were elicited by applying kainic acid (100 nM) to the extracellular bath. The oscillations were allowed to stabilize for 20 minutes before any recordings were carried out. LFP recordings were performed with a 4 channel amplifier/signal conditioner M102-amplifier (Electronics lab, Faculty of Mathematics and Natural Sciences, University of Cologne, Cologne, Germany). The signals were sampled at 10 kHz, conditioned using a Hum Bug 50 Hz noise eliminator (Quest Scientific, North Vancouver, BC, Canada), software low-pass filtered at 1 kHz, digitized and stored using a Digidata 1322A and Clampex 9.6 software (Molecular devices, CA, USA).
(§4) Power spectral density plots (from 60 s long LFP recordings) were calculated in averaged Fourier-segments of 8192 points using Axograph X (Kagi, Berkeley, Calif., USA). Oscillation power was calculated by integrating the power spectral density between 20 and 80 Hz. Data is reported as means±standard errors of the means in the text and as median and upper/lower quartile in the figure box plots. For statistical analysis the Mann-Whitney U-test was used.

[3] = biological target: T1, Aβ1-42; assay: Prevention of Aβ-induced decrease of kainate-induced gamma oscillations in hippocampal slices (LFP, area CA3); type: cell-based, C57BL/6 mice
Method: as §1, §2, §3, §4

[4] = 50 nM ligand, equimolar (1:1) to 50 nM Aβ1-42, 15 min incubation
[5] = 250 nM ligand with 50 nM Aβ, 15 min incubation

T1 sequence (P05067 672-713 limits assumed): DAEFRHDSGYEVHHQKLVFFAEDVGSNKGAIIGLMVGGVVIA

Row | prevention of the Aβ-induced decrease of kainate-induced gamma oscillations [3, 5] | SMILES | fibril formation by Aβ1-42 (electron microscopy) [1] | effect of ligand alone on kainate-induced gamma oscillations [2] | effectiveness in preventing Aβ-induced degradation of network gamma oscillations compared with first generation ligands [3] | prevention of the Aβ-induced decrease of kainate-induced gamma oscillations [3, 4] | prevention of the Aβ-induced decrease of kainate-induced gamma oscillations ([3]; 50 nM ligand, equimolar (1:1) to 50 nM Aβ1-42, 15 min incubation, listed as DH-20)
1 | – | CCCCCCCC[C@H](N)CNCC[C@H](N)C(=O)N[C@H](CCN1C(=O)c2cccc3c(N(C)C)ccc(c23)C1=O)C(=O)NCC[C@@H](NC(=O)CCCC(=O)O)C(=O)O [8AEDabDmnDabGla, HO-Gla-D-Dab-(COOH)-D-DMNA-L-Dap-(NH2)—CH2CH(NH2)—C8] | less fibrils | – | – | – | –
2 | – | CCCCCCCCCC(=O)NCCNC[C@H](N)C(=O)N[C@H](Cc1c[nH]c2ccccc12)C(=O)NCC[C@@H](NC(=O)CCCC(=O)O)C(=O)O [DH18, (R)—N^4—[N^2—(N^3—(N-decanoyl-2-aminoethyl)-(S)-2,3-diaminopropionyl)-D-tryptophanyl]-N^2-glutanoyl-2,4-diaminobutanoic acid] | – | no effect | – | – | –
3 | – | CCCCCCCCCC(=O)NCCNC[C@H](N)C(=O)N[C@H](CCN1C(=O)c2cccc3c(N(C)C)ccc(c23)C1=O)C(=O)NCC[C@@H](NC(=O)CCCC(=O)O)C(=O)O [DH18_Dmn, HO-Gla-D-Dab-(COOH)-D-DMNA-L-Dap-(NH2)-AE-decanoyl] | less fibrils | neither of these ligands had an effect | more effective than first generation ligands | complete prevention; also recorded: effective also at only a 1:1 ratio; also recorded: reverse Aβ-induced reduction of gamma oscillation; also recorded: prevention of Aβ-induced degradation of network gamma oscillations | –
4 | higher prevention | CCCCCCCCCC(=O)NCCNCCN [Dec-DETA, reference compound] | – | neither of these ligands had an effect | – | – | –
5 | only partial prevention | N=C(N)CCNCCCC(N)C(=O)NC(Cc1c[nH]c2ccccc12)C(=O)NCCC(NC(=O)CCCC(=O)O)C(=O)O (centres unmarked) [Pep1b, reference compound] | fibrils were formed but to somewhat lesser extent | neither of these ligands had an effect | – | – | –

Row | SMILES | prevention of the Aβ-induced decrease of kainate-induced gamma oscillations [3, 5] | fibril formation by Aβ1-42 (electron microscopy) [1] | effect of ligand alone on kainate-induced gamma oscillations [2] | effectiveness in preventing Aβ-induced degradation of network gamma oscillations compared with first generation ligands [3] | prevention of the Aβ-induced decrease of kainate-induced gamma oscillations [3, 4] | prevention of the Aβ-induced decrease of kainate-induced gamma oscillations ([3]; 50 nM ligand, equimolar (1:1) to 50 nM Aβ1-42, 15 min incubation, listed as DH-20)
6 | NC(=O)CCCCCCCCCCC(=O)NCCNC[C@H](N)C(=O)N[C@H](Cc1c[nH]c2ccccc12)C(=O)NCC[C@@H](NC(=O)CCCC(=O)O)C(=O)O [DH20, (R)—N^4—[N^2—(N^3—(N-(12-amino-12-oxododecanoyl)-2-aminoethyl)-(S)-2,3-diaminopropionyl)-D-tryptophanyl]-N^2-glutanoyl-2,4-diaminobutanoic acid] | complete prevention; also recorded: reverses Aβ-induced reduction of gamma oscillation | less fibrils | neither of these ligands had an effect; also recorded: no effect | more effective than first generation ligands | complete prevention | effective also at only a 1:1 ratio; also recorded: reverse Aβ-induced reduction of gamma oscillation

Source: patent US10023610B2, “Ligands for prevention of neurotoxicity of the alzheimer's disease related amyloid-beta peptide” (AlphaBeta AB, priority 2014, dated 2018)
